Reference: article PMC6131539, “Behavioral Effects of a Potential Novel TAAR1 Antagonist” (Frontiers in Pharmacology, 2018)

Tests used:
C57BL/6J mice [1] = assay: Basal locomotor activity in C57BL/6J mice; type: in vivo
Experimental: (§1) Experimentally naïve mice, of at least 12 weeks of age, were used for all behavioral experiments. The mice were randomly assigned to treatment or control groups, balanced by sex and weight. Locomotor activity was assessed using the automated locomotor analysis monitors (Omnitech Electronics, Columbus, OH, United States). The apparatus included four open field monitors. Each Open Field monitor consisted of sets of 16 light beams arrayed in the horizontal X and Y axes. The hardware detected beams broken by the animal, which allowed the software to determine the location of the mouse in the cage. Total distance covered by mice was used to characterize locomotor activity of the animals. The monitors were divided into four compartments (20 cm × 20 cm). Animals were tested individually for defined periods with 5-min intervals. The mice were first weighed and then placed into the apparatus, allowing for 30 min habituation. Following the habituation, the mice were removed from the al apparatus and injected with drugs (see below for administration) or vehicle and returned immediately to the locomotor chamber. The locomotor activity was then measured for additional 1 h. After the experiments, the animals were euthanized by cervical dislocation.
(§2) All drug solutions were prepared freshly on the day of the experiment and injected i.p. at the volume of 10 ml/kg. […] Amphetamine was dissolved in 0.9% saline at a concentration of 0.2 mg/mL.
In order to assess the effects of compound 22 on basal locomotor activity, C57BL/6 mice were injected with doses of 5 and 30 mg/kg of compound 22 or vehicle (Figure 1). At the dose of 5 mg/kg, compound 22 inhibited basal locomotor activity by 58% (^∗p = 0.02). Although not significant, there was a trend toward a decrease in locomotor activity at the dose of 30 mg/kg as well (26% decrease, p = 0.15).
FIGURE 1 In vivo studies with compound 22 on basal locomotor activity. Wild type C57BL/6J mice were first habituated for 30 min followed by co-injection of saline or compound 22 at a dose of 5 or 30 mg/kg. The locomotor activity was assessed for 60 min after injection. […]

C57BL/6J mice [2] = assay: Amphetamine-induced locomotor activity, co-injection, C57BL/6J mice; type: in vivo; settings: 60 min
Experimental: as §1, §2
The effect of compound 22 (5, 15, 20, 30, and 50 mg/kg) on locomotor activity, in mice, in combination to a single, sub-maximal dose of amphetamine (2 mg/kg) was carried out (Figure 2). […] Although not significant, there was a trend toward an increase in locomotor activity at the dose of 5 mg/kg as well (28% increase, p = 0.32).
FIGURE 2 In vivo studies with compound 22 co-injected with amphetamine in WT mice. Wild type C57BL/6J mice were first habituated for 30 min followed by the co-injection of amphetamine (2 mg/kg) and saline or compound 22 at doses 5, 15, 20, 25, 30, and 50 mg/kg. The locomotor activity was assessed for 60 min after the injection. (A) Locomotor activity over time for 2 mg/kg amphetamine only or co-injected with 5, 15, or 20 mg/kg compound 22; (B) locomotor activity over time for 2 mg/kg amphetamine only or co-injected with 30 or 50 mg/kg compound 22; (C) sum of locomotor activity over 60 min after the injection of amphetamine and compound 22. Data are means ± SEM; N = 12–18 for compound 22 treated alone and N = 66 for amphetamine treated alone. A one way ANOVA was performed [F(5,126) = 4.788, p = 0.0005] followed by Dunnett’s post hoc analyses (^∗p < 0.05, ^∗∗∗p < 0.001).

VTA dopamine neurons = assay: Electrophysiology: spontaneous firing of VTA dopamine neurons in slices; type: cell-based, C57Bl/6J mice; settings: 100 μM, bath applied 5 min; percentage of baseline
Experimental: All electrophysiological recordings were performed in slice preparations from C57Bl/6J mice (P21-P30). Briefly, mice were anaesthetized with isoflurane and transcardially perfused with an ice-cold sucrose solution containing (in mM): 50 sucrose, 26.2 NaHCO3, 1.25 glucose, 4.9 MgCl2, 3 kynurenic acid, 0.1 CaCl2, and 1.32 ascorbic acid in bicarbonate-buffered solution (aCSF, described below). Mice were then decapitated and brains were extracted. […] Cells were visualized on an upright microscope using “Dodt-type” gradient contrast infrared optics ([Dodt et al., 2002]) and whole-cell recordings were made using a MultiClamp 700B amplifier (Axon Instruments, Union City, CA, United States). Recording electrodes (3–5 MΩ) were filled with (in mM): 136 potassium-D-gluconate, 4 MgCl2, 1.1 HEPES, 5, EGTA, 10 sodium creatine phosphate, 3.4 Mg-ATP, and 0.1 Na2GTP. […] Spontaneous firing activity was recorded in current-clamp mode. […] Firing data for all neurons was analyzed with the MiniAnalysis program (Synaptosoft) using the same criteria. Drug-induced changes in firing are expressed as a percentage of baseline. Drug effects were calculated by comparing the response during the baseline/pre-drug period to the response 5 min after onset of drug administration. […] We therefore assessed the effects of compound 22 on firing rate of dopamine neurons. […]

Question: Which “inhibition of basal locomotor activity” value (C57BL/6J mice [1]; 5 mg/kg i.p. alone, sum over 60 min vs saline, p = 0.02) does the source give for `Clc1ccc(CNCc2ccc(Cn3cncn3)cc2)c(Cl)c1` [compound 22] here?
Answer: Its value is 58%.

Question: What about the “decrease in basal locomotor activity” value (C57BL/6J mice [1]; 30 mg/kg i.p. alone, sum over 60 min vs saline, not significant, p = 0.15) of the same molecule?
Answer: Its value is 26%.

Question: And the “effect on locomotor activity when administered alone” value (C57BL/6J mice [1]; 5 and 30 mg/kg i.p., administered alone)?
Answer: Its value is “did not stimulate locomotor activity”.

Question: What about the “increase in amphetamine-stimulated locomotor activity” value (C57BL/6J mice [2]; 5 mg/kg i.p. co-injected with amphetamine 2 mg/kg, not significant, p = 0.32) of the same molecule?
Answer: The value was 28%.

Question: And the “increase in amphetamine-stimulated locomotor activity” value (C57BL/6J mice [2]; 15 mg/kg i.p. co-injected with amphetamine 2 mg/kg, p = 0.04)?
Answer: The value was 44%.

Question: And the “increase in amphetamine-stimulated locomotor activity” value (C57BL/6J mice [2]; 20 mg/kg i.p. co-injected with amphetamine 2 mg/kg, p = 0.02)?
Answer: Its value is 57%.

Question: And the “increase in amphetamine-stimulated locomotor activity” value (C57BL/6J mice [2]; 30 mg/kg i.p. co-injected with amphetamine 2 mg/kg, p = 0.0009)?
Answer: Its value is 77%.

Question: And the “change in amphetamine-stimulated locomotor activity” value (C57BL/6J mice [2]; 50 mg/kg i.p. co-injected with amphetamine 2 mg/kg)?
Answer: The value was “no difference in locomotor activity”.

Question: And the “increase in firing rate of dopaminergic neurons from VTA” value (VTA dopamine neurons)?
Answer: Its value is 88%.
